Experimental data: patent US20190388421A1, “NOVEL COMPOUNDS AND PHARMACEUTICAL COMPOSITIONS THEREOF FOR THE TREATMENT OF FIBROSIS” (Galapagos NV, priority 2016, published 2019)

How the values were obtained:
[1] = molecular target: T1, human GPCR sphingosine 1-phosphate receptor 1 (S1PR1) (Homo sapiens, UniProt P21453); assay: S1PR1 selectivity assay (Ca2+ flux, antagonist); type: cell-based; conditions: S1P1 antagonist EC50, CHO cells overexpressing human S1PR1 and Gq protein
T1 construct: host or cells: CHO
In short: (§1)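 CHO cells stably overexpressing human S1PR1 or S1PR5 with Gq were preincubated with compound 15 min at 37 °C, then stimulated with S1P at EC80 (S1PR1) or an S1PR5-specific agonist (S1PR5). Ca2+ fluorescence was read for 3 min; 10-point 1/3 dilutions from 20 μM final, normalized to vehicle and EC80 trigger, gave EC50.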

HFL-1 cells [2] = assay: IL8 assay in the presence of Human Serum Albumin; type: cell-based; conditions: HFL1, S1P (5 μM) induced IL-8, HFL-1 cells, with 2% HSA, read-out: HSA IL8 EC50
In short: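 Cells serum-starved with 1.95% HSA, pre-treated 1 h with compound (10-point 1/3 dilution from 30 μM, 0.3% DMSO), then stimulated with 5 μM S1P for 16 to 24 h at 37° C. Supernatant IL-8 measured by ELISA.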

[3] = molecular target: T2, human GPCR sphingosine 1-phosphate receptor 5 (S1PR5) (Homo sapiens, UniProt Q9H228); assay: S1PR5 selectivity assay (Ca2+ flux, antagonist, S1PR5 specific agonist trigger); type: cell-based; conditions: S1P5 antagonist EC50, CHO cells overexpressing human S1PR5 and Gq protein
T2 construct: host or cells: CHO
In short: as §1

S1PR2 = molecular target: T3, S1PR2 (Homo sapiens, UniProt O95136); assay: GTP-γS binding assay ([35S]GTPγS, S1P at EC80, S1PR2 membranes); type: biochemical; conditions: membranes from stable cell line over expressing S1PR2, read-out: S1PR2 EC
T3 construct: expressed in transfected cells
In short: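 Compounds tested against S1P at its EC80 on membranes (2.5 μg/well) from a stable S1PR2-overexpressing line, pre-incubated with 1 μM GDP 15 min at 4 °C. Buffer: 20 mM Tris pH 7.5, 10 mM MgCl2, 100 mM NaCl, 0.1% fatty-acid-free BSA, 50 ug/ml saponin. Incubated 4 h at room temperature; [35S]GTPγS binding read by WGA SPA beads.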

[4] = molecular target: T4, human GPCR sphingosine 1-phosphate receptor 2 (S1PR2) (Homo sapiens, UniProt O95136); assay: S1P2 antagonist assay (Ca2+ flux, S1P at EC80); type: cell-based; conditions: CHO-S1PR2 cells, highest concentration 20 μM
T4 construct: host or cells: CHO
In short: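 CHO cells stably overexpressing human S1PR2, serum-starved 1 h and loaded with Fluo8 dye, were read for 3 min after compound addition, then stimulated with S1P at EC80 after 15 min at 37 °C. Top concentration 20 μM in a 10-point 1/3 series; Ca2+ fluorescence ratio normalized to vehicle and S1P EC80, giving EC50.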

HFL-1 cells [5] = assay: IL8 assay (S1P induced IL-8 production); type: cell-based; conditions: Homo sapiens, HFL1; S1P (1 μM) induced IL-8, HFL-1 cells, without HSA
In short: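 Serum-starved human fetal lung fibroblasts were preincubated with compound for 1 h at 37° C (10-point, 1/3 dilution, top 30 μM, 0.3% DMSO). S1P at 1 μM final was then added for 16–24 h, and IL-8 in the supernatant was measured by ELISA.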

T1 sequence (P21453 whole entry): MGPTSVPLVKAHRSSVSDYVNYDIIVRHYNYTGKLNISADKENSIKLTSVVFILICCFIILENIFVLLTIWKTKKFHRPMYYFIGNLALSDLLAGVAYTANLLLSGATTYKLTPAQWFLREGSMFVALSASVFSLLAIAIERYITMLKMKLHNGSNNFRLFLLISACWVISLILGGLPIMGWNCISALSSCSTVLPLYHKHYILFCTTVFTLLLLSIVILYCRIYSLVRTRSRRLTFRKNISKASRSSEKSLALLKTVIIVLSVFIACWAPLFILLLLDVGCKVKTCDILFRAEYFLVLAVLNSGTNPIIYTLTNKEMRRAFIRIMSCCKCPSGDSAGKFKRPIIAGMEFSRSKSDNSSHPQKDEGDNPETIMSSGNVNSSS
T2 sequence (Q9H228 whole entry): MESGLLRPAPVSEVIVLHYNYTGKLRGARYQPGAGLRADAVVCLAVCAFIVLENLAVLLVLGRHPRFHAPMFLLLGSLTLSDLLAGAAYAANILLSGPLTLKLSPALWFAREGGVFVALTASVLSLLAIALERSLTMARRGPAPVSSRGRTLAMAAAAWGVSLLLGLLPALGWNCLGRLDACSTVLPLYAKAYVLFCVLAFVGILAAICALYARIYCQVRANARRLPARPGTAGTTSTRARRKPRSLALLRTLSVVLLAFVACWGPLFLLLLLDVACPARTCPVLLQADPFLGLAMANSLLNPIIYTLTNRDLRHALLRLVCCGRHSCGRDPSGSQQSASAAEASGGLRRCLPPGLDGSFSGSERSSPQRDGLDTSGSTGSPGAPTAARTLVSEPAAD
T4 sequence (O95136 whole entry): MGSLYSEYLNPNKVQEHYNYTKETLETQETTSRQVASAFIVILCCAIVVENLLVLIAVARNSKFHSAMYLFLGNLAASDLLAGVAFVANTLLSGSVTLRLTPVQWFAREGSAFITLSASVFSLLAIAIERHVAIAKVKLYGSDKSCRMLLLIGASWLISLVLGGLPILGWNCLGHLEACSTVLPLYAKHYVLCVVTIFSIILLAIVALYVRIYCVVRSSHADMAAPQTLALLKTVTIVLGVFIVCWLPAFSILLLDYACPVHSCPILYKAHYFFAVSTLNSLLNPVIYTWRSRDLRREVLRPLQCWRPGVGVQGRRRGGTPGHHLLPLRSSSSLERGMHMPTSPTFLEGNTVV
T3 sequence (O95136 whole entry): as above

| Structure (SMILES) | EC50 [1] [nM] | IC50 (HFL-1 cells [2]) [nM] | EC50 [3] [nM] | EC50 (S1PR2) [nM] | EC50 [4] [nM] | EC50 (HFL-1 cells [5]) [nM] |
| --- | --- | --- | --- | --- | --- | --- |
| CN(C)Cc1cc(CNC(=O)Nc2cc(Cl)nc(OCC(F)F)c2)nnc1-c1cn(C)nc1C(F)(F)F [Compound 65, 1-[2-chloro-6-(2,2-difluoroethoxy)-4-pyridyl]-3-[[5-(dimethylamino-methyl)-6-[1-methyl-3-(trifluoromethyl)pyrazol-4-yl]pyridazin-3-yl]methyl]urea] | 6610 | 10000 | ≥ 19800 | 1470 | 1620 | 2630 |
| CCOc1cc(NC(=O)NCc2cc(C)c(-c3cnn(C)c3C)nn2)cc(C(F)(F)F)n1 [Compound 69] | ≥ 19800 | 9950 | ≥ 19800 | 751 | 945 | 108 |
| CCOc1nc(C)cc(NC(=O)NCc2cc(C)c(-c3cn(C)nc3C(F)(F)F)nn2)c1Cl [Compound 71, 1-(3-chloro-2-ethoxy-6-methyl-4-pyridyl)-3-[[5-methyl-6-[1-methyl-3-(trifluoromethyl)pyrazol-4-yl]pyridazin-3-yl]methyl]urea] | 6610 | 56 | 6610 | 25 | 9 | 2 |
| CCOc1nc(C)cc(NC(=O)NCc2cc(C)c(-c3cn(C)nc3C(F)(F)F)nn2)c1C [Compound 72, 1-(2-ethoxy-3,6-dimethyl-4-pyridyl)-3-[[5-methyl-6-[1-methyl-3-(trifluoromethyl)pyrazol-4-yl]pyridazin-3-yl]methyl]urea] | 16500 | 47 | 11000 | 25 | 9 | 2 |
| Cc1cc(NC(=O)NCc2cc(C)c(-c3cn(C)nc3C(F)(F)F)nn2)c(C)c(OCC(F)F)n1 [Compound 74, 1-[2-(2,2-difluoroethoxy)-3,6-dimethyl-4-pyridyl]-3-[[5-methyl-6-[1-methyl-3-(trifluoromethyl)pyrazol-4-yl]pyridazin-3-yl]methyl]urea] | 13000 | 118 | ≥ 19800 | 81 | 22 | 15 |
| Cc1cc(NC(=O)NCc2cc(C)c(-c3cn(C)nc3C(F)(F)F)nn2)cc(OCC(F)F)n1 [Compound 75, 1-[2-(2,2-difluoroethoxy)-6-methyl-4-pyridyl]-3-[[5-methyl-6-[1-methyl-3-(trifluoromethyl)pyrazol-4-yl]pyridazin-3-yl]methyl]urea] | ≥ 19800 | 223 | 2890 | 282 | 59 | 38 |
| CCOc1cc(N/C(=N/C#N)NCc2cc(C)c(-c3cn(C)nc3C(F)(F)F)nn2)cc(C(F)(F)F)n1 [Compound 76, 2-cyano-1-[2-ethoxy-6-(trifluoromethyl)-4-pyridyl]-3-[[5-methyl-6-[1-methyl-3-(trifluoromethyl)pyrazol-4-yl]pyridazin-3-yl]methyl]guanidine] | 13200 | 111 | 6610 | 62 | 17 | 8 |
| CCOc1nc(C)cc(N/C(=N/C#N)NCc2cc(C)c(-c3cn(C)nc3C(F)(F)F)nn2)c1C [Compound 78, 2-cyano-1-(2-ethoxy-3,6-dimethyl-4-pyridyl)-3-[[5-methyl-6-[1-methyl-3-(trifluoromethyl)pyrazol-4-yl]pyridazin-3-yl]methyl]guanidine] | ≥ 19800 | 1250 | ≥ 19800 | 863 | 106 | 1090 |
| Cc1cc(NC(=NC#N)NCc2cc(C)c(-c3cn(C)nc3C(F)(F)F)nn2)c(C)c(OCC(F)F)n1 [Compound 79, 2-cyano-1-[2-(2,2-difluoroethoxy)-3,6-dimethyl-4-pyridyl]-3-[[5-methyl-6-[1-methyl-3-(trifluoromethyl)pyrazol-4-yl]pyridazin-3-yl]methyl]guanidine] | ≥ 19800 | 7040 | ≥ 19800 | 2130 | 546 | 439 |
| CCOc1nc(C(F)(F)F)cc(N/C(=N/C#N)NCc2cc(C)c(-c3cn(C)nc3C(F)(F)F)nn2)c1C [Compound 80, 2-cyano-1-[2-ethoxy-3-methyl-6-(trifluoromethyl)-4-pyridyl]-3-[[5-methyl-6-[1-methyl-3-(trifluoromethyl)pyrazol-4-yl]pyridazin-3-yl]methyl]guanidine] | ≥ 19800 | 239 | 6610 | 45 | 13 | 3 |
| CCOc1cc(NC(=O)NCc2cc(C)c(N3CCC(F)(F)C3)nn2)cc(Cl)n1 [Compound 81, 1-(2-Chloro-6-ethoxy-pyridin-4-yl)-3-[6-(3,3-difluoro-pyrrolidin-1-yl)-5-methyl-pyridazin-3-ylmethyl]-urea] | 6610 | 10000 | 3770 | 197 | 6 | 32 |
| CCOc1cc(NC(=O)NCc2cc(C)c(N3CC(C)OC(C)C3)nn2)cc(Cl)n1 (stereo not drawn) [Compound 82, 1-(2-Chloro-6-ethoxy-pyridin-4-yl)-3-[6-(2,6-dimethyl-morpholin-4-yl)-5-methyl-pyridazin-3-ylmethyl]-urea] | 6610 | 730 | 341 | 156 | 6 | 53.5 |
| CCOc1cc(NC(=O)NCc2cc(C)c(N3CC(C)OC(C)C3)nn2)cc(C(F)(F)F)n1 (stereo not drawn) [Compound 87, 1-[[6-(2,6-dimethyl-morpholin-4-yl)-5-methyl-pyridazin-3-yl]methyl]-3-[2-ethoxy-6-(trifluoromethyl)-4-pyridyl]urea] | 1400 | 2170 | 249 | 331 | 42 | 82 |
| Cc1cc(CNC(=O)Nc2cc(Cl)nc(OCC(F)F)c2)nnc1N1CCOC(C(F)(F)F)C1 (stereo not drawn) [Compound 89, 1-[2-chloro-6-(2,2-difluoroethoxy)-4-pyridyl]-3-[[5-methyl-6-[2-(trifluoromethyl)morpholin-4-yl]pyridazin-3-yl]methyl]urea] | 3800 | 1580 | 839 | 422 | 34 | 33 |
| Cc1cc(CNC(=O)Nc2cc(Cl)nc(OCC(F)F)c2)nnc1N1CCC(F)(CO)C1 (stereo not drawn) [Compound 90, 1-[2-chloro-6-(2,2-difluoroethoxy)-4-pyridyl]-3-[[6-[3-fluoro-3-(hydroxymethyl)pyrrolidin-1-yl]-5-methyl-pyridazin-3-yl]methyl]urea] | 6610 | 30000 | 2090 | 1170 | 452 | 244 |
| Cc1cc(CNC(=O)Nc2cc(Cl)nc(OCC(F)F)c2)nnc1N1CCC(S(C)(=O)=O)C1 (stereo not drawn) [Compound 91, 1-[2-chloro-6-(2,2-difluoroethoxy)-4-pyridyl]-3-[[5-methyl-6-(3-methylsulfonyl-pyrrolidin-1-yl)pyridazin-3-yl]methyl]urea] | ≥ 19800 | 2840 | ≥ 19800 | 919 | 529 | 1250 |
| Cc1cc(CNC(=O)Nc2cc(Cl)nc(OCC(F)F)c2)nnc1N1CC(S(C)(=O)=O)C1 [Compound 92, 1-[2-chloro-6-(2,2-difluoroethoxy)-4-pyridyl]-3-[[5-methyl-6-(3-methylsulfonyl-azetidin-1-yl)pyridazin-3-yl]methyl]urea] | ≥ 19800 | 10000 | ≥ 19800 | 469 | 188 | 432 |
| CCOc1cc(NC(=O)NCc2cc(C)c(N3CCCc4nn(C)cc43)nn2)cc(C(F)(F)F)n1 [Compound 96, 1-[2-ethoxy-6-(trifluoromethyl)-4-pyridyl]-3-[[5-methyl-6-(2-methyl-6,7-dihydro-5H-pyrazolo[4,3-b]pyridin-4-yl)pyridazin-3-yl]methyl]urea] | 6610 | 2270 | 627 | 302 | 33 | 44 |
